In patent US20240368150A1 (Hoffmann-La Roche Inc., priority 2021, published 2024):
Like-named read-outs stand apart in the source and are kept apart here.

Tests used:
[1] = test system: primary human T-cells
[2] = test system: primary human T-cells; test: Proliferation assay after 5 days (CellTiter-Glo, CD3 stimulation; PBS counter screen); type: cell-based; conditions: Homo sapiens, T-cell, 120 h, CD3 stimulation; for Emax: 5 days, normalized to reference compound A1 as stimulator control = 100%, DMSO neutral control, read-out: Emax proliferation (% activation); for EC50: primary human T-cells, CellTiter-Glo after 5 days, EC50 of fitted sigmoidal curve, read-out: Tcell Proliferation CD3 EC50
Method in brief: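 ATP-based luminescence (CellTiter-Glo 2.0, room temperature) measured proliferation 5 days after compound addition to CD3-stimulated or unstimulated primary human T-cells. Flags marked compounds that lowered viability or activated unstimulated cells.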

Compound	EC50 [1] [nM]	Emax [2] [%]	EC50 [2] [nM]
CC(C)(C)n1nc(-c2cc3c(cc2F)S(=O)(=O)C[C@H](N)C(=O)N3Cc2ccc(Cl)cc2)oc1=O [Example 510, 3-tert-butyl-5-[(3R)-3-amino-5-[(4-chlorophenyl)methyl]-8-fluoro-1,1,4-trioxo-2,3-dihydro-1λ^6,5-benzothiazepin-7-yl]-1,3,4-oxadiazol-2-one]	91.7	129	403
COC(=O)N1CC2CC(c3nc(-c4cc5c(cc4F)[S+]([O-])C[C@H](N)C(=O)N5Cc4ccc(OC(F)(F)C(F)F)cc4)no3)(C2)C1 (stereo partly drawn) [Example 511, methyl 1-[3-[(3R)-3-amino-8-fluoro-1,4-dioxo-5-[[4-(1,1,2,2-tetrafluoroethoxy)phenyl]methyl]-2,3-dihydro-1λ^4,5-benzothiazepin-7-yl]-1,2,4-oxadiazol-5-yl]-3-azabicyclo[3.1.1]heptane-3-carboxylate]	7820	104	6620
COC(=O)N1CC2CC(c3nc(-c4cc5c(cc4F)S(=O)(=O)C[C@H](N)C(=O)N5Cc4ccc(OC(F)(F)C(F)F)cc4)no3)(C2)C1 [Example 512, methyl 1-[3-[(3R)-3-amino-8-fluoro-1,1,4-trioxo-5-[[4-(1,1,2,2-tetrafluoroethoxy)phenyl]methyl]-2,3-dihydro-1λ^6,5-benzothiazepin-7-yl]-1,2,4-oxadiazol-5-yl]-3-azabicyclo[3.1.1]heptane-3-carboxylate]	993	162	–
COC(F)(c1nc(-c2cc3c(cc2F)S(=O)(=O)C[C@H](N)C(=O)N3Cc2ccc(F)cc2)no1)C(F)(F)F (stereo partly drawn) [Example 513, (3R)-3-amino-8-fluoro-5-[(4-fluorophenyl)methyl]-1,1-dioxo-7-[5-(1,2,2,2-tetrafluoro-1-methoxy-ethyl)-1,2,4-oxadiazol-3-yl]-2,3-dihydro-1λ^6,5-benzothiazepin-4-one]	307	157	285
COC(F)(c1nc(-c2cc3c(cc2F)[S+]([O-])C[C@H](N)C(=O)N3Cc2ccc(F)cc2)no1)C(F)(F)F (stereo partly drawn) [Example 514, (3R)-3-amino-8-fluoro-5-[(4-fluorophenyl)methyl]-1-oxo-7-[5-(1,2,2,2-tetrafluoro-1-methoxy-ethyl)-1,2,4-oxadiazol-3-yl]-2,3-dihydro-1λ^4,5-benzothiazepin-4-one]	1920	105	1950

More lines, main results first:

EC50 [1] [nM]	Compound	Emax [2] [%]	EC50 [2] [nM]
4070	COC(F)(c1nc(-c2cc3c(cc2F)S(=N)(=O)C[C@H](N)C(=O)N3Cc2ccc(Cl)cc2)no1)C(F)(F)F (stereo partly drawn) [Example 515, (3R)-3-amino-5-[(4-chlorophenyl)methyl]-8-fluoro-1-imino-1-oxo-7-[5-(1,2,2,2-tetrafluoro-1-methoxy-ethyl)-1,2,4-oxadiazol-3-yl]-2,3-dihydro-1λ^6,5-benzothiazepin-4-one]	63	4910
2740	CC(C)(C)c1nc(-c2cc3c(cc2F)S(=N)(=O)C[C@H](N)C(=O)N3Cc2ccc(Cl)cc2)no1 (stereo partly drawn) [Example 516, (3R)-3-amino-7-(5-tert-butyl-1,2,4-oxadiazol-3-yl)-5-[(4-chlorophenyl)methyl]-8-fluoro-1-imino-1-oxo-2,3-dihydro-1λ^6,5-benzothiazepin-4-one]	51	8330
5530	CN=S1(=O)C[C@H](N)C(=O)N(Cc2ccc(OC(F)(F)F)cc2)c2cc(-c3nnc(C(C)(C)C)o3)c(F)cc21 (stereo partly drawn) [Example 519, (3R)-3-amino-7-(5-tert-butyl-1,3,4-oxadiazol-2-yl)-8-fluoro-1-methylimino-1-oxo-5-[[4-(trifluoromethoxy)phenyl]methyl]-2,3-dihydro-1λ^6,5-benzothiazepin-4-one]	72	4370
